Patent publication US11299501B2 (BRISTOL-MYERS SQUIBB COMPANY, priority 2017, dated 2022)

Assays:
Format in all cases: cell-based
human TLR8 = molecular target: T1, human TLR8 (Homo sapiens, UniProt Q9NR97); assay: TLR8 inhibition reporter assay (HEK-Blue SEAP); conditions: cells overexpressing human TLR8, SEAP reporter, stimulated with R848 15.9 μM, 22 hour incubation
T1 construct: host or cells: HEK-Blue cells
T1 sequence (Q9NR97 27-1041): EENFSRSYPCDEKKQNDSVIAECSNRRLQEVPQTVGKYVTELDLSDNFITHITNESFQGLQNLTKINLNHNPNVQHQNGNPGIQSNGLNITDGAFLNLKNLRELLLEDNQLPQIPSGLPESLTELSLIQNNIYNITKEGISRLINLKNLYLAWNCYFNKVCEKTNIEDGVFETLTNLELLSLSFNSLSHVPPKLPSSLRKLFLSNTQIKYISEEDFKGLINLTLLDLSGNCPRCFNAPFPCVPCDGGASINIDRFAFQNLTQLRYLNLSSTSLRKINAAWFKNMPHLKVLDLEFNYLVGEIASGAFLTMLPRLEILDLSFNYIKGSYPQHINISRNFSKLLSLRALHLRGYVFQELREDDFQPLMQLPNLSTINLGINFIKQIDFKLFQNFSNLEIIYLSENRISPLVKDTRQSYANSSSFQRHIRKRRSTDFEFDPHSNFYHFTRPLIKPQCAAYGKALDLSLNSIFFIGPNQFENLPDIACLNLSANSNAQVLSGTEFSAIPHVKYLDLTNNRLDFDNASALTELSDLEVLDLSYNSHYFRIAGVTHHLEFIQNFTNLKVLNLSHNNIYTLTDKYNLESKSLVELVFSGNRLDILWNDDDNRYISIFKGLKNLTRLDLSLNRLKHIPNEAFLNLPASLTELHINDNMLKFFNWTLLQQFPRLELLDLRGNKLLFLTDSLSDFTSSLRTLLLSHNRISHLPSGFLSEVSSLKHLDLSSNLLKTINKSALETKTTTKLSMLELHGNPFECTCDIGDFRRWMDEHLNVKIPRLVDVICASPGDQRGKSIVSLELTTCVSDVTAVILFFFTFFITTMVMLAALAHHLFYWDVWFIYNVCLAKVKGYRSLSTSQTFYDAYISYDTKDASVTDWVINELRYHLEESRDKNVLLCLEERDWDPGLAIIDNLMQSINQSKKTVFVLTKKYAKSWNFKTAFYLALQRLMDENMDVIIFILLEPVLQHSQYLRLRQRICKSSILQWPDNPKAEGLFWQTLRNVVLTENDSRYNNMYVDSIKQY
Protocol: (§1) TLR7/8/9 Inhibition Reporter Assays
(§2) […] (Invivogen) overexpressing human TLR7, TLR8 or TLR9 receptors were used for screening inhibitors of these receptors using an inducible SEAP (secreted embryonic alkaline phosphatase) reporter gene under the control of the IFN-β minimal promoter fused to five NF-κB and AP-1-binding sites. Briefly, cells are seeded into Greiner 384 well plates (15000 cells per well for TLR7, 20,000 for TLR8 and 25,000 for TLR9) and then treated with test compounds in DMSO to yield a final dose response concentration range of 0.05 nM-50 μM. After a 30 minute compound pre-treatment at room temperature, the cells are then stimulated with a TLR7 ligand (gardiquimod at a final concentration of 7.5 μM). TLR8 ligand (R848 at a final concentration of 15.9 μM) or TLR9 ligand (ODN2006 at a final concentration of 5 nM) to activate NF-κB and AP-1 which induce the production of SEAP. After a 22 hour incubation at 37° C., 5% CO2, SEAP levels are determined with the addition of HEK-Blue™ Detection reagent (Invivogen), a cell culture medium that allows for detection of SEAP, according to manufacturer's specifications. The percent inhibition is determined as the % reduction in the HEK-Blue signal present in wells treated with agonist plus DMSO alone compared to wells treated with a known inhibitor.

human TLR7 = molecular target: T2, human TLR7 (Homo sapiens, UniProt Q9NYK1); assay: TLR7 inhibition reporter assay (HEK-Blue SEAP); conditions: cells overexpressing human TLR7, SEAP reporter, stimulated with gardiquimod 7.5 μM, 22 hour incubation
T2 construct: host or cells: HEK-Blue cells
T2 sequence (Q9NYK1 27-1049): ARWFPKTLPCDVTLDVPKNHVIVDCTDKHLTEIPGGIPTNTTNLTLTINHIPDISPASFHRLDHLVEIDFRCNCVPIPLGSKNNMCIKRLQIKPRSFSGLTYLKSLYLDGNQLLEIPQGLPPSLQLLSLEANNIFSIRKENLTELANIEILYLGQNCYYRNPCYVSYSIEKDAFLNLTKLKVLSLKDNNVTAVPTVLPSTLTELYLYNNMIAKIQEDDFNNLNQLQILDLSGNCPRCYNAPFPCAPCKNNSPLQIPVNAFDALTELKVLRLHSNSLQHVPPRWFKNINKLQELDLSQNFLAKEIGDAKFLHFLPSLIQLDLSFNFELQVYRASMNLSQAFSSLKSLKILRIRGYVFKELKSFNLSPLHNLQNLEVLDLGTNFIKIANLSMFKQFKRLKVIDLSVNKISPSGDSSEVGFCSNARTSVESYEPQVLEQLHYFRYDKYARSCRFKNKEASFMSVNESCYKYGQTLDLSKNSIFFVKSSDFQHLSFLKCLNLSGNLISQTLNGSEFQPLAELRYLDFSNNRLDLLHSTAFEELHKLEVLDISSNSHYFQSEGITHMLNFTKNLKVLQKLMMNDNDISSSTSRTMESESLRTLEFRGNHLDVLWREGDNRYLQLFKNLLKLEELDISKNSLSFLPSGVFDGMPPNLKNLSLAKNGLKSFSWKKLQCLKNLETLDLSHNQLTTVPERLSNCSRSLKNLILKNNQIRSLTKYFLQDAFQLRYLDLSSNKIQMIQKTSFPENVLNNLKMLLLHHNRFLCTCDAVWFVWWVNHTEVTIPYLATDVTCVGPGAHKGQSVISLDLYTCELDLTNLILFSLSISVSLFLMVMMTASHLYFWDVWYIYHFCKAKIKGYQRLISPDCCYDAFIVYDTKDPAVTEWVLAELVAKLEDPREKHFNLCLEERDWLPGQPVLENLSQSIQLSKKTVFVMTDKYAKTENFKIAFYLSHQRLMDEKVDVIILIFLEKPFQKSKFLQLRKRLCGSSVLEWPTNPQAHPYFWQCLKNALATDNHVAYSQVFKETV
Protocol: as §1, §2

human TLR9 = molecular target: T3, human TLR9 (Homo sapiens, UniProt Q9NR96); assay: TLR9 inhibition reporter assay (HEK-Blue SEAP); conditions: cells overexpressing human TLR9, SEAP reporter, stimulated with ODN2006 5 nM, 22 hour incubation
T3 construct: host or cells: HEK-Blue cells
T3 sequence (Q9NR96 26-1032): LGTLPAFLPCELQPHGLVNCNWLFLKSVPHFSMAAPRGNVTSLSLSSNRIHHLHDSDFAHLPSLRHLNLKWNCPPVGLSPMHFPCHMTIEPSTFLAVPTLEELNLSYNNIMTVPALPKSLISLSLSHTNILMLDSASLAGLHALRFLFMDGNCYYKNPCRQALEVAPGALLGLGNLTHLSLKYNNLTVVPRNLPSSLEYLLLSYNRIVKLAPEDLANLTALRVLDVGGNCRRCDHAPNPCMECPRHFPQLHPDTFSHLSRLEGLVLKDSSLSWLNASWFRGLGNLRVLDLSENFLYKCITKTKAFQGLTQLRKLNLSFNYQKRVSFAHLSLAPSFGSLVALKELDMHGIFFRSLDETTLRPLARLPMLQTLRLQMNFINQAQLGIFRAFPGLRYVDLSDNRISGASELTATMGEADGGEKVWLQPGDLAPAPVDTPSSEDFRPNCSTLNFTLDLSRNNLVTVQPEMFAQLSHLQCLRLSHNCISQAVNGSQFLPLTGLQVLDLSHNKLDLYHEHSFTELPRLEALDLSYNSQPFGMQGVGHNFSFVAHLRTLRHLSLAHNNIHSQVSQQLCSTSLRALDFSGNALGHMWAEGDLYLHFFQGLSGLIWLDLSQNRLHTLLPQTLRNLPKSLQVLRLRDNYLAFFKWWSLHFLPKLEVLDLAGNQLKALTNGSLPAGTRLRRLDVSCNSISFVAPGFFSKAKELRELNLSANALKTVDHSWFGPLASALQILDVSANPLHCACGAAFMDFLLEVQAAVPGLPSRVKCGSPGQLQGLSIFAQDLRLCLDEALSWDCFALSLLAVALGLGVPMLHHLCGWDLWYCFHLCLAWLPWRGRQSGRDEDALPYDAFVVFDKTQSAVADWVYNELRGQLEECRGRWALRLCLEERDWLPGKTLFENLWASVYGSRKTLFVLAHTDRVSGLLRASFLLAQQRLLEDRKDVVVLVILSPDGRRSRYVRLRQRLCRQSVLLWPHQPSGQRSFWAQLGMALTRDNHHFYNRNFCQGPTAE
Protocol: as §1, §2

| SMILES | IC50 (human TLR8) [nM] | IC50 (human TLR7) [nM] | IC50 (human TLR9) [nM] |
| --- | --- | --- | --- |
| COc1ccc(-c2[nH]c3cnc(C4CCN(C(=O)CN(C)C)CC4)nc3c2C(C)C)cc1OC [Example 18, 1-(4-(6-(3,4-dimethoxyphenyl)-7-isopropyl-5H-pyrrolo[3,2-d]pyrimidin-2-yl)piperidin-1-yl)-2-(dimethylanino)ethan-1-one] | 100 to 1000 | < 100 | 100 to 1000 |
| Cc1c(-c2[nH]c3cnc(C4CCN(C5CCOCC5)CC4)nc3c2C(C)C)cn2ncnc2c1C [Example 13, 6-(7-isopropyl-2-(1-(tetrahydro-2H-pyran-4-yl)piperidin-4-yl)-5H-pyrrolo[3,2-d]pyrimidin-6-yl)-7,8-dimeihyl-[1,2,4]triazolo[1,5-a]pyridine] | < 100 | < 100 | 1000 to 50000 |
| COc1ccc(-c2[nH]c3cnc(C4CCNCC4)nc3c2C(C)C)cc1OC [Example 17, 6-(3,4-dimethoxyphenyl)-7-isopropyl-2-(piperidin-4-yl)-5H-pyrrolo[3,2-d]pyrimidine] | < 100 | < 100 | 100 to 1000 |
| CCc1c(-c2ccc(OC)c(OC)c2)[nH]c2nnc(C3CCNCC3)cc12 [Example 1, 6-(3,4-dimethoxyphenyl)-5-ethyl-3-(piperidin-4-yl)-7H-pyrrolo[2,3-c]pyridazine] | 1000 to 50000 | 100 to 1000 | 100 to 1000 |
| CCc1c(-c2ccc(OC)c(OC)c2)[nH]c2nnc(C3CCN(C4CCN(C(C)C)CC4)CC3)cc12 [Example 2, 6-(3,4-dimethoxyphenyl)-5-ethyl-3-(1′-isopropyl-[1,4′-bipiperidin]-4-yl)-7H-pyrrolo[2,3-c]pyridazine] | 100 to 1000 | 100 to 1000 | 100 to 1000 |
| COc1ccc(-c2[nH]c3cnc(C4CCN(C5CCN(CC(C)C)CC5)CC4)nc3c2C)cc1OC [Example 6, 6-(3,4-dimethoxyphenyl)-2-(1′-isobutyl-[1,4′-bipiperidin]-4-yl)-7-methyl-5H-pyrrolo[3,2-d]pyrimidine] | 100 to 1000 | 100 to 1000 | 100 to 1000 |
| CCc1c(-c2ccnc(C)c2)[nH]c2cnc(C3CCN(C4CCN(C(C)C)CC4)CC3)nc12 [Example 23, 7-ethyl-2-(1′-isopropyl-[1,4′-bipiperidin]-4-yl)-6-(2-methylpyridin-4-yl)-5H-pyrrolo[3,2-d]pyrimidine] | < 100 | 100 to 1000 | 100 to 1000 |
| CCc1c(-c2ccc(OC)c(OC)c2)[nH]c2cnc(-c3nnc(C(C)(C)N)o3)nc12 [Example 39, 2-(5-(6-(3,4-dimethoxyphenyl)-7-ethyl-5H-pyrrolo[3,2-d]pyrimidin-2-yl)-1,3,4-oxadiazol-2-yl)propan-2-amine] | 1000 to 50000 | 1000 to 50000 | > 50000 |
| CCc1c(-c2ccc(OC)c(OC)c2)[nH]c2cnc(C3CCN(CC(=O)N(C)C)CC3)nc12 [Example 49] | < 100 | 100 to 1000 | 1000 to 50000 |
| Cc1c(-c2[nH]c3cnc(C4CCN(CC(C)(C)O)CC4)nc3c2C(C)C)cn2ncnc2c1C [Example 27, 1-(4-(6-(7,8-dimethyl-[1,2,4]triazolo[1,5-a]pyridin-6-yl)-7-isopropyl-5H-pyrrolo[3,2-d]pyrimidin-2-yl)piperidin-1-yl)-2-methylpropan-2-ol] | < 100 | < 100 | 1000 to 50000 |
| Cc1cc(-c2[nH]c3cnc(C4CCN(CC(=O)N(C)C)CC4)nc3c2C(C)C)cn2ncnc12 [Example 29, 2-(4-(7-isopropyl-6-(8-methyl-[1,2,4]triazolo[1,5-a]pyridin-6-yl)-5H-pyrrolo[3,2-d]pyrimidin-2-yl)piperidin-1-yl)-N,N-dimethylacetantide] | < 100 | < 100 | 1000 to 50000 |
| CCc1c(-c2ccc(OC)c(OC)c2)[nH]c2cnc(-c3nnc(CNC)o3)nc12 [Example 42, 1-(5-(6-(3,4-dimethoxyphenyl)-7-ethyl-5H-pyrrolo[3,2-d]pyrimidin-2-yl)-1,3,4-oxadiazol-2-yl)-N-methylmethanamine] | 100 to 1000 | 1000 to 50000 | 1000 to 50000 |
| CCc1c(-c2ccc(OC)c(OC)c2)[nH]c2cnc(-c3nnc(C[C@H]4CCCCN4)o3)nc12 [Example 36, (R)-2-(6-(3,4-dimethoxyphenyl)-7-ethyl-5H-pyrrolo[3,2-d]pyrhnidin-2-yl)-5-(piperidin-2-ylmethyl)-1,3,4-oxadiazole] | 100 to 1000 | 1000 to 50000 | 1000 to 50000 |
